Measured values published in patent publication US6544756B1, “Sorbitol dehydrogenase, microorganism for producing same, process for the production thereof, method for the measurement of sorbitol and reagent for the quantitative determination therefor” (Unitika Ltd., priority 1999, dated 2003).

Tests used:
Type in all cases: biochemical
[1] = test system: sorbitol dehydrogenase derived from Pseudomonas fluorescens A-654 strain; test: Substrate specificity (Vmax/Km, Km) of sorbitol dehydrogenase from A-654 strain; settings: enzyme from Pseudomonas fluorescens A-654; for Vmax/Km: relative to D-sorbitol taken as 100
Method: (§1) The sorbitol dehydrogenase of the invention has the foregoing physicochemical properties. In the present invention, the measurement of the activity of sorbitol dehydrogenase was carried out by adding an enzyme solution to a 80 mM Tris-HCl buffer (pH 9.0) containing 50 mM of D-sorbitol and 2 mM of NAD^+, slowly mixing them, and then measuring the change of absorbance at 340 nm by means of a spectrophotometer. The measurement was made at a temperature of 30° C. The amount of enzyme required to produce 1 μmol of NADH per minute was defined to be 1 unit (U).
(§2) (2) Substrate specificity: The Vmax/Km of the sorbitol dehydrogenase of the invention with respect to various substrates (relative to that with respect to D-sorbitol taken as 100) is about 40 or less for galactitol and about 3 or less for iditol, preferably about 30 or less for galactitol and about 2 or less for iditol. The Km for D-sorbitol is about 6 mM or less, preferably about 4 mM or less. Among the sorbitol dehydrogenases of the invention, the substrate specificities of those derived from Flavimonas oryzihabitans A-520 strain, Pseudomonas fluorescens A-989 strain and Pseudomonas fluorescens A-654 strain are shown in Table 2 below.
(§3) Vmax means the maximum velocity of the reaction at the saturated substrate concentration and Km means the Michaelis constant. The Vmax/Km values indicates the apparent […] of the enzyme reaction as a whole, which is generally used as an index for reflecting the substrate specificity. These values may be measured and calculated in accordance with the methods described in Chapter 8 of Biochemistry, second edition, by Albert Lehninger, 1975, Worth Publishers, Inc. or in Enzyme Structure and Mechanism, second edition, by Alan Fersht, 1984, W. H. Freeman & Co.

[2] = test system: sorbitol dehydrogenase derived from Flavimonas oryzihabitans A-520 strain; test: Substrate specificity (Vmax/Km, Km) of sorbitol dehydrogenase from A-520 strain; settings: enzyme from Flavimonas oryzihabitans A-520; for Vmax/Km: relative to D-sorbitol taken as 100
Method: as §1, §2, §3

[3] = test system: sorbitol dehydrogenase derived from Pseudomonas fluorescens A-989 strain; test: Substrate specificity (Vmax/Km, Km) of sorbitol dehydrogenase from A-989 strain; settings: enzyme from Pseudomonas fluorescens A-989; for Vmax/Km: relative to D-sorbitol taken as 100
Method: as §1, §2, §3

OC[C@@H](O)C(O)[C@H](O)CO [Arbitol, D-arabitol]
Vmax/Km [1]: 0% | Vmax/Km [2]: 0% | Vmax/Km [3]: 0%

O=C[C@H](O)[C@@H](O)[C@H](O)[C@H](O)CO [D-Glucose, D-glucose]
Vmax/Km [1]: 0% | Vmax/Km [2]: 0% | Vmax/Km [3]: 0%

OC[C@@H](O)[C@H](O)[C@H](O)[C@@H](O)CO [Galactitol]
Km [1]: 2 mM | Vmax/Km [1]: 31.9% | Km [2]: 1.9 mM | Vmax/Km [2]: 28.9% | Km [3]: 3.1 mM | Vmax/Km [3]: 36.8%

OC[C@H](O)[C@@H](O)[C@H](O)[C@@H](O)CO [Iditol, L-iditol]
Vmax/Km [1]: 1.55% | Vmax/Km [2]: 1.99% | Vmax/Km [3]: 2.78%

OC[C@@H](O)[C@@H](O)[C@H](O)[C@H](O)CO [Mannitol, D-mannitol]
Vmax/Km [1]: 0% | Vmax/Km [2]: 0% | Vmax/Km [3]: 0%

OC[C@@H](O)[C@@H](O)[C@H](O)[C@@H](O)CO [Sorbitol, D-sorbitol]
Km [1]: 3.5 mM | Vmax/Km [1]: 100% | Km [2]: 2.5 mM | Vmax/Km [2]: 100% | Km [3]: 5.9 mM | Vmax/Km [3]: 100%

OC[C@@H](O)[C@H](O)[C@@H](O)CO [Xylitol, xylitol]
Vmax/Km [1]: 0% | Vmax/Km [2]: 0% | Vmax/Km [3]: 0%
